Data on two molecules can be found in paper PMC6145841 (Biochemistry, 2018).

Square brackets hold non-standard residues; d marks the D form. Peptide text beside a SMILES is read from it. Where only a bound is given, the exact number is not on record here.

As a reminder, the EC50 is the concentration needed to bring the measured effect to its halfway point.

The target of test [1] is T1, ComD1 receptor (Streptococcus pneumoniae serotype 2, UniProt A0A0H2ZM50). In words: Beta-galactosidase reporter dose response assay, group I strain D39pcomX::lacZ. In kind it is cell-based.
A further test deals with ComD2 receptor (Streptococcus pneumoniae serotype 4, UniProt A0A0H2US84). The test is classed as cell-based.
The target in test [2] is T1, ComD1 receptor. The settings on record: Table 1; ref [26]; cited from earlier work.

In the case of `CC[C@H](C)[C@H](NC(=O)[C@H](C)NC(=O)[C@H](C)NC(=O)[C@H](C)NC(=O)[C@H](CCCNC(=N)N)NC(=O)[C@H](CCSC)NC(=O)[C@@H](N)CCC(=O)O)C(=O)N[C@H](C(=O)N[C@@H](CC(C)C)C(=O)N[C@H](CC(=O)O)C(=O)N[C@@H](Cc1ccccc1)C(=O)N[C@@H](CC(C)C)C(=O)N[C@@H](Cc1ccccc1)C(=O)N[C@@H](C)C(=O)N[C@@H](CCCNC(=N)N)C(=O)N[C@@H](CCCCN)C(=O)N[C@@H](CCCCN)C(=O)O)[C@@H](C)CC` [CSP2-I4AS5AR6Ad10L14A] (H-EMRAAAIIL[dD]FLFARKK-OH), the EC50 was over 1000 nM on ComD1 receptor [1] and 87.7 nM on ComD2 receptor. On to EMALSKFFRDFILQRKK [CSP1-R3A], for which, on ComD1 receptor [2], the “activity against the ComD1 receptor (in words)” value was “complete loss of activity”.
